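Step 1: Grow cells in 96-well plates. Step 2: Expose to compound for 48 hours at 5 concentrations. Step 3: Interpolate endpoints linearly; if unreached, use highest concentration. Here, GI50 denotes the concentration required for 50% inhibition of growth.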 Activity calls are given as the source filed them. Cut-off read from the data, not from the text of the source: active = GI50 up to about 1.1 µM and inactive = higher.
Key:
Test in all cases: NCI anticancer screen, dose series, 48 h
786-0 = tested on: 786-0
NCI/ADR-RES = tested on: NCI/ADR-RES
U-251 = tested on: U-251
SK-MEL-2 = tested on: SK-MEL-2
M14 = tested on: M14
COLO 205 = tested on: COLO 205
A498 = tested on: A498
NCI-H460 = tested on: NCI-H460
A549 = tested on: A549
SK-MEL-28 = tested on: SK-MEL-28
Hs-578T = tested on: Hs-578T
RXF 393 = tested on: RXF 393
PC-3 = tested on: PC-3
SK-MEL-5 = tested on: SK-MEL-5
HCT-116 = tested on: HCT-116
SR = tested on: SR
SNB-19 = tested on: SNB-19
OVCAR-5 = tested on: OVCAR-5
NCI-H522 = tested on: NCI-H522
T47D = tested on: T47D
UACC-62 = tested on: UACC-62
MDA-N = tested on: MDA-N
DU-145 = tested on: DU-145
HOP-92 = tested on: HOP-92
MDA-MB-435 = tested on: MDA-MB-435
HL-60 = tested on: HL-60
HCT-15 = tested on: HCT-15
BT-549 = tested on: BT-549
SN12C = tested on: SN12C
NCI-H23 = tested on: NCI-H23
ACHN = tested on: ACHN
NCI-H226 = tested on: NCI-H226
SK-OV-3 = tested on: SK-OV-3
OVCAR-4 = tested on: OVCAR-4
KM12 = tested on: KM12
OVCAR-3 = tested on: OVCAR-3
MOLT-4 = tested on: MOLT-4
SF-268 = tested on: SF-268
K562 = tested on: K562
SF-539 = tested on: SF-539
IGROV-1 = tested on: IGROV-1
MCF7 = tested on: MCF7
HOP-62 = tested on: HOP-62
EKVX = tested on: EKVX
MDA-MB-231 = tested on: MDA-MB-231
OVCAR-8 = tested on: OVCAR-8
CAKI-1 = tested on: CAKI-1
RPMI-8226 = tested on: RPMI-8226
UO-31 = tested on: UO-31
SF-295 = tested on: SF-295
HT-29 = tested on: HT-29
TK-10 = tested on: TK-10
SW-620 = tested on: SW-620
CCRF-CEM = tested on: CCRF-CEM
LOX IMVI = tested on: LOX IMVI
UACC-257 = tested on: UACC-257
Malme-3M = tested on: Malme-3M
HCC 2998 = tested on: HCC 2998
SNB-75 = tested on: SNB-75
KM-20L2 = tested on: KM-20L2
DMS-273 = tested on: DMS-273
DMS-114 = tested on: DMS-114
M19-MEL = tested on: M19-MEL
SNB-78 = tested on: SNB-78
LXFL 529 = tested on: LXFL 529

Measured: GI50

C/C=C(\C)C(O)C(C)C(O)C/C=C(C)/C=C(\C)C/C(C)=C/C/C=C(\C)C(O)C(C)c1ccc(CCC)c(=O)o1 (stereo not drawn)
inactive: 786-0 20.8 µM | NCI/ADR-RES 2.8 µM | U-251 11.4 µM | SK-MEL-2 23.8 µM | M14 14.9 µM | COLO 205 3.78 µM | A498 14.7 µM | NCI-H460 5.18 µM | A549 3.57 µM | SK-MEL-28 17.1 µM | Hs-578T 14.5 µM | RXF 393 26.7 µM | PC-3 3.5 µM | SK-MEL-5 1.14 µM | SR 18.8 µM | SNB-19 16.1 µM | OVCAR-5 19.8 µM | NCI-H522 2 µM | T47D 12.1 µM | UACC-62 9.86 µM | MDA-N 8.77 µM | HOP-92 16.6 µM | MDA-MB-435 9.12 µM | HL-60 > 100 µM | BT-549 11.8 µM | SN12C 16.6 µM | NCI-H226 21.1 µM | SK-OV-3 32.2 µM | OVCAR-4 10 µM | KM12 7.19 µM | OVCAR-3 12.1 µM | MOLT-4 20 µM | SF-268 15.8 µM | SF-539 14.1 µM | IGROV-1 14.6 µM | MCF7 4.25 µM | HOP-62 16.2 µM | EKVX 17.5 µM | MDA-MB-231 13.2 µM | OVCAR-8 12.9 µM | CAKI-1 12.9 µM | RPMI-8226 16.1 µM | UO-31 7.82 µM | HT-29 1.69 µM | TK-10 17.5 µM | SW-620 12.3 µM | CCRF-CEM 61.8 µM | LOX IMVI 6.68 µM | Malme-3M 9.25 µM | HCC 2998 12.9 µM | SNB-75 10.8 µM
1.17 µM: HCT-15
active: HCT-116 0.544 µM | DU-145 < 0.01 µM | NCI-H23 < 0.01 µM | ACHN < 0.01 µM | K562 0.501 µM | SF-295 0.349 µM | UACC-257 0.249 µM

COC(=O)c1ccccc1N1C(=O)Cc2ccccc2C1=O
inactive: 786-0 66.1 µM | U-251 > 100 µM | SK-MEL-2 > 100 µM | COLO 205 > 100 µM | A549 > 100 µM | SK-MEL-28 > 100 µM | RXF 393 42.3 µM | SK-MEL-5 > 100 µM | HCT-116 > 10 µM | SR > 100 µM | SNB-19 > 100 µM | OVCAR-5 > 100 µM | KM-20L2 > 100 µM | DMS-273 > 100 µM | UACC-62 72.6 µM | DMS-114 > 100 µM | SN12C > 100 µM | NCI-H23 > 100 µM | ACHN > 100 µM | NCI-H226 > 100 µM | SK-OV-3 42.9 µM | KM12 > 100 µM | OVCAR-3 35.6 µM | MOLT-4 > 100 µM | SF-268 55.1 µM | K562 > 100 µM | SF-539 75.3 µM | IGROV-1 > 100 µM | M19-MEL > 100 µM | EKVX > 100 µM | OVCAR-8 75.9 µM | RPMI-8226 > 100 µM | UO-31 > 100 µM | SNB-78 > 100 µM | SF-295 45.4 µM | HT-29 > 100 µM | TK-10 > 100 µM | SW-620 > 100 µM | UACC-257 > 100 µM | Malme-3M > 100 µM | LXFL 529 > 100 µM | HCC 2998 > 100 µM | SNB-75 21.6 µM
> 100 µM: HCT-15

— ChEMBL document CHEMBL1201862, “PubChem BioAssay data set” (2004)
